Assay results as given in patent US6699656B2, “Treatment and prevention of HIV infection by administration of derivatives of human chorionic gonadotropin” (University of Maryland Biotechnology Institute, priority 1996, dated 2004).
Bridges are numbered along the chain shown (N, C = ends). Where no end group is shown, it is not given here.

Experiments:
HIV-1 [1] = test system: HIV-1
HIV-1 [2] = conditions: p24 antigen days 3 to 10; peptides 0.05 to 50 nmoles/ml, hCG 0.01 to 1,000 IU, native β-hCG 100 to 1,000 μg
Description: Sequences of the peptides are as follows:
HIV-1 infected cells were treated with the above preparations and the virus was measured.

KS Y-1 or KS-SLK cells = assay: KS clonogenic assay; format: cell-based, human; conditions: 2 KS cell lines; peptides 50 nmoles/ml, CR127 2 nmoles/ml; 10 days
Description: Briefly, the KS Y-1 cells were obtained from mononuclear cells isolated from pleural effusion of an AIDS patient with KS involving the lungs. After the depletion of T lymphocytes, monocytes/macrophages and fibroblasts by the cytotoxicity method, using monoclonal antibodies against CD2, CD3, CD4, CD8, CD10 and CD14 membrane antigens and baby rabbit complement, the cells were cultured in the absence of exogenous growth factors to select for transformed cells.

[3] = test system: hematopoietic progenitor cells; assay: Hematopoietic progenitor colony assays (CFU-MIX, BFU-e, CFU-GM); format: cell-based; conditions: bone marrow and cord blood; hCG 200 IU/ml, peptides and subunits 100 μg/ml; 10 days
From the text: Hematopoietic progenitor cells (2×10^5 cell/ml) were isolated from normal bone marrow and cord blood and seeded in methylcellulose. […] Aggregates containing more than 50 cells after 10 days of culture were counted as colonies.

KS Y-1 tumors = KS Y-1 tumors induced in immunodeficient mice; format: in vivo; conditions: treatment from one week after tumor cell injection; peptides 10 μg daily 5 days, hCG APL 100 IU s.c. daily 7 days
Description: The effects of the peptides on KS tumor cells were also evaluated in vivo in the mouse model. To induce KS tumors in the mice, 1×10^6/ml KS Y-1 cells in 50 μl PBS or saline were injected subcutaneously into immunodeficient mice (beige-XID-BNX mice). […] Methods for detection of apoptosis (from tissue biopsies) were used, as described in Lunardi-Iskandar, Y. et al.(1995, Nature 375:64-68). Briefly, the samples were stained in situ for the presence of cells with DNA fragmentation. Tissue slides from formalin-fixed tumors were treated with terminal deoxynucleotide transferase for extension of DNA ends (hydroxyl 3′) and incorporation of digoxigenin-11-dUTP according to the manufacturer's instructions (Oncor, Gaithersburg, Md.). Anti-digoxigenin antibody conjugated with the enzyme peroxidase allowed detection of apoptotic cells that stain brown whereas viable cells stain blue.

HIV-1 transgenic mice = format: in vivo
Kaposi's Sarcoma = conditions: literature; cited from earlier work

For `CC(C)c1nc(CN(C)C(=O)N[C@H](C(=O)N[C@@H](Cc2ccccc2)C[C@H](O)[C@H](Cc2ccccc2)NC(=O)OCc2cncs2)C(C)C)cs1` [Ritonavir], the “CD4+ T cells, patient PH-SPBE” value (HIV-1 [1]; Ritonavir added at 22 weeks to ongoing hCG treatment) was “over 300 mm^3”.
With `CC(C)(C)NC(=O)[C@@H]1CN(Cc2cccnc2)CCN1C[C@@H](O)C[C@@H](Cc1ccccc1)C(=O)N[C@H]1c2ccccc2C[C@H]1O` [indinavir (Crixivan)] the “viral load, patient PH-JPV” value (HIV-1 [1]; indinavir added after hCG induced pulmonary response) was “undetectable viral load”.
For “Cys Leu Gln Gly Val Leu Pro Ala Leu Pro Gln Val Val Cys (CLQGVLPALPQVVC; disulfide 1-14 (inferred)) [Satellin A2 peptide]”, the “inhibition of HIV-1 infection/replication in acutely infected cells” value (HIV-1 [2]) was “most active”, the “anti-KS effect in clonogenic assays (number of colonies)” value (from here on “anti-KS effect in clonogenic assays”) (KS Y-1 or KS-SLK cells) was “strongest anti-tumor effects” and the “growth of hematopoietic progenitors (colonies)” value (from here on “growth … (colonies)”) [3] was “directly promoted”. The “effect on KS Y-1 tumors in mice (cell death, thin sections)” value (from here on “effect on KS Y-1 tumors in mice”) (KS Y-1 tumors) was “extensive cell death”.
With LQGVLPALPQVVC [β-hCG peptide 45-57] the “inhibition of HIV-1 infection/replication in acutely infected cells” value (HIV-1 [2]) was “most active”, the “anti-KS effect in clonogenic assays” value (KS Y-1 or KS-SLK cells) was “strongest anti-tumor effects” and the “growth … (colonies)” value [3] was “directly promoted”. For the same compound, the “effect on KS Y-1 tumors in mice” value (KS Y-1 tumors) was “extensive cell death”.
With “Leu Gln Dab(Pro) Val Leu Pro Dab(Pro) Leu Pro Gln Val Val Cys [branched β-hCG 45-57]” the “hyperkeratosis of the skin / histology” value (HIV-1 transgenic mice; HIV-1 transgenic mice) was “normal histology”, the “growth retardation and cachexia” value (HIV-1 transgenic mice; HIV-1 transgenic mice, branched peptide 10 μg to mothers s.c. daily for 10 days) was “reversal” and the survival (HIV-1 transgenic mice; all untreated mice died within 10 days, 10 μg to mothers s.c. daily for 10 days) was “survived”. For the same compound, the “gp120 and nef protein by antibody staining” value (HIV-1 transgenic mice; pups, 10 μg to mothers s.c. daily for 10 days) was “down regulation”.
With TCDDPRFQDSS [β-hCG peptide 109-119] the “inhibition of HIV-1 infection/replication in acutely infected cells” value (HIV-1 [2]) was “active”, the “anti-KS effect in clonogenic assays” value (KS Y-1 or KS-SLK cells) was “strongest anti-tumor effects” and the “growth … (colonies)” value [3] was “directly promoted”. The “efficacy in the treatment of Kaposi's Sarcoma” value (Kaposi's Sarcoma) was “efficacious”.
With “α-hCG peptide 88-92: α-hCG peptide of amino acids 88-92 (YYHKS; UniProt P01215 112-116, looked up, fragment)” the “inhibition of HIV-1 infection/replication in acutely infected cells” value (HIV-1 [2]) was “little or no effect”, the “anti-KS effect in clonogenic assays” value (KS Y-1 or KS-SLK cells) was “little or no inhibition” and the “growth … (colonies)” value [3] was “little or no effects”. The “effect on KS Y-1 tumors in mice” value (KS Y-1 tumors) was “inactive”.
With “β-hCG peptide 6-16: β-hCG peptide of amino acids 6-16 (RPRCRPINATL; UniProt P0DN86 26-36, looked up, fragment)” the “inhibition of HIV-1 infection/replication in acutely infected cells” value (HIV-1 [2]) was “little or no effect”, the “anti-KS effect in clonogenic assays” value (KS Y-1 or KS-SLK cells) was “little or no inhibition” and the “growth … (colonies)” value [3] was “little or no effects”. For the same compound, the “effect on KS Y-1 tumors in mice” value (KS Y-1 tumors) was “inactive”.
For “β-hCG peptide 6-40: β-hCG peptide 6-40, forms the β-core (RPRCRPINATLAVEKEGCPVCITVNTTICAGYCPT; UniProt P0DN86 26-60, looked up, fragment)”, the “effect on KS Y-1 tumors in mice” value (KS Y-1 tumors) was “slight activity”.
For “β-hCG peptide 7-40: β-hCG peptide of amino acids 7-40 (PRCRPINATLAVEKEGCPVCITVNTTICAGYCPT; UniProt P0DN86 27-60, looked up, fragment)”, the “anti-KS effect in clonogenic assays” value (KS Y-1 or KS-SLK cells) was “little or no inhibition” and the “growth … (colonies)” value [3] was “little or no effects”.
For “β-hCG peptide 34-49: β-hCG peptide of amino acids 34-49 (CAGYCPTMTRVLQGVL; UniProt P0DN86 54-69, looked up, fragment)”, the “anti-KS effect in clonogenic assays” value (KS Y-1 or KS-SLK cells) was “little or no inhibition”, the “growth … (colonies)” value [3] was “little or no effects” and the “effect on KS Y-1 tumors in mice” value (KS Y-1 tumors) was “inactive”.
With “β-hCG peptide 38-57: β-hCG peptide of amino acids 38-57, overlaps satellin A1 (CPTMTRVLQGVLPALPQVVC; UniProt P0DN86 58-77, looked up, fragment)” the “anti-KS effect in clonogenic assays” value (KS Y-1 or KS-SLK cells) was “little or no inhibition”, the “growth … (colonies)” value [3] was “little or no effects” and the “effect on KS Y-1 tumors in mice” value (KS Y-1 tumors) was “slight activity”.
With “β-hCG peptide 55-90: β-hCG peptide 55-90, forms the β-core (VVCNYRDVRFESIRLPGCPRGVNPVVSYAVALSCQC; UniProt P0DN86 75-110, looked up, fragment)” the “effect on KS Y-1 tumors in mice” value (KS Y-1 tumors) was “slight activity”.
In the case of “β-hCG peptide 57-93: β-hCG peptide of amino acids 57-93 (CNYRDVRFESIRLPGCPRGVNPVVSYAVALSCQCALC; UniProt P0DN86 77-113, looked up, fragment)”, the “anti-KS effect in clonogenic assays” value (KS Y-1 or KS-SLK cells) is reported as “little or no inhibition”, the “growth … (colonies)” value [3] is reported as “little or no effects” and the “effect on KS Y-1 tumors in mice” value (KS Y-1 tumors) is reported as “inactive”.
In the case of “β-hCG peptide 74-95: β-hCG peptide of amino acids 74-95 (RGVNPVVSYAVALSCQCALCRR; UniProt P0DN86 94-115, looked up, fragment)”, the “inhibition of HIV-1 infection/replication in acutely infected cells” value (HIV-1 [2]) is reported as “little or no effect”, the “anti-KS effect in clonogenic assays” value (KS Y-1 or KS-SLK cells) is reported as “little or no inhibition” and the “growth … (colonies)” value [3] is reported as “little or no effects”. The “effect on KS Y-1 tumors in mice” value (KS Y-1 tumors) was “inactive”.
For “β-hCG peptide 93-100: β-hCG peptide of amino acids 93-100 (CRRSTTDC; UniProt P0DN86 113-120, looked up, fragment)”, the “effect on KS Y-1 tumors in mice” value (KS Y-1 tumors) was “inactive”.
For “β-hCG peptide 100-110: β-hCG peptide of amino acids 100-110 (CGGPKDHPLTC; UniProt P0DN86 120-130, looked up, fragment)”, the “anti-KS effect in clonogenic assays” value (KS Y-1 or KS-SLK cells) was “little or no inhibition”, the “growth … (colonies)” value [3] was “little or no effects” and the “effect on KS Y-1 tumors in mice” value (KS Y-1 tumors) was “inactive”.
For “β-hCG peptide 109-145: β-hCG carboxy-terminal peptide of amino acids 109-145 (TCDDPRFQDSSSSKAPPPSLPSPSRLPGPSDTPILPQ)”, the “efficacy in the treatment of Kaposi's Sarcoma” value (Kaposi's Sarcoma) is listed as “efficacious”.
In the case of “β-hCG peptide 123-145: β-hCG peptide of amino acids 123-145”, the “growth … (colonies)” value [3] is reported as “little or no effects” and the “effect on KS Y-1 tumors in mice” value (KS Y-1 tumors) is reported as “inactive”.
For “β-hCG peptide 134-144: β-hCG peptide of amino acids 134-144”, the “growth … (colonies)” value [3] was “little or no effects” and the “effect on KS Y-1 tumors in mice” value (KS Y-1 tumors) was “inactive”.
